According to PubChem BioAssay AID1259407 (Chemical Carcinogenesis Research Information System (CCRIS), 2018):
Active and inactive are the calls of the source. No rule for the calls is given here.

Tested on: CCRIS mutagenicity, Ames/micronucleus/aberration tests
Experiment: CCRIS mutagenicity studies
[1] = Test System: AMES SALMONELLA TYPHIMURIUM, Strain/Indicator: TA97, Metabolic Activation: NONE, Method: PREINCUBATION
[2] = Test System: AMES SALMONELLA TYPHIMURIUM, Strain/Indicator: TA97, Metabolic Activation: RAT, LIVER, S-9, AROCLOR 1254 (10%), Method: PREINCUBATION
[3] = Test System: AMES SALMONELLA TYPHIMURIUM, Strain/Indicator: TA98, Metabolic Activation: NONE, Method: PREINCUBATION
[4] = Test System: AMES SALMONELLA TYPHIMURIUM, Strain/Indicator: TA98, Metabolic Activation: RAT, LIVER, S-9, AROCLOR 1254 (10%), Method: PREINCUBATION
[5] = Test System: AMES SALMONELLA TYPHIMURIUM, Strain/Indicator: TA100, Metabolic Activation: NONE, Method: PREINCUBATION
[6] = Test System: AMES SALMONELLA TYPHIMURIUM, Strain/Indicator: TA100, Metabolic Activation: NONE, Method: STANDARD PLATE
[7] = Test System: AMES SALMONELLA TYPHIMURIUM, Strain/Indicator: TA100, Metabolic Activation: RAT, LIVER, S-9, AROCLOR 1254 (10%), Method: PREINCUBATION
[8] = Test System: AMES SALMONELLA TYPHIMURIUM, Strain/Indicator: TA100, Metabolic Activation: RAT, LIVER, S-9, AROCLOR 1254, Method: STANDARD PLATE
[9] = Test System: AMES SALMONELLA TYPHIMURIUM, Strain/Indicator: TA1535, Metabolic Activation: NONE, Method: PREINCUBATION
[10] = Test System: AMES SALMONELLA TYPHIMURIUM, Strain/Indicator: TA1535, Metabolic Activation: RAT, LIVER, S-9, AROCLOR 1254 (10%), Method: PREINCUBATION

C[C@H](CCC(=O)O)[C@H]1CC[C@H]2[C@@H]3CC[C@@H]4C[C@H](O)CC[C@]4(C)[C@H]3CC[C@]12C
mutagenic call (Test System: AMES SALMONELLA TYPHIMURIUM, Strain/Indicator: TA97, Metabolic Activation: HAMSTER, LIVER, S-9, AROCLOR 1254 (10 OR 30%), Method: PREINCUBATION): inactive; negative
mutagenic call [1]: inactive; negative
mutagenic call [2]: inactive; negative
mutagenic call (Test System: AMES SALMONELLA TYPHIMURIUM, Strain/Indicator: TA97, Metabolic Activation: RAT, LIVER, S-9, AROCLOR 1254 (30%), Method: PREINCUBATION): inactive; negative
mutagenic call (Test System: AMES SALMONELLA TYPHIMURIUM, Strain/Indicator: TA98, Metabolic Activation: HAMSTER, LIVER, S-9, AROCLOR 1254 (10 OR 30%), Method: PREINCUBATION): inactive; negative
mutagenic call (Test System: AMES SALMONELLA TYPHIMURIUM, Strain/Indicator: TA98, Metabolic Activation: NONE, Method: FLUCTUATION TEST): inactive; negative
mutagenic call [3]: inactive; negative
mutagenic call [4]: inactive; negative
mutagenic call (Test System: AMES SALMONELLA TYPHIMURIUM, Strain/Indicator: TA98, Metabolic Activation: RAT, LIVER, S-9, AROCLOR 1254 (30%), Method: PREINCUBATION): inactive; negative
mutagenic call (Test System: AMES SALMONELLA TYPHIMURIUM, Strain/Indicator: TA98, Method: PREINCUBATION): inactive; negative
mutagenic call (Test System: AMES SALMONELLA TYPHIMURIUM, Strain/Indicator: TA100, Metabolic Activation: HAMSTER, LIVER, S-9, AROCLOR 1254 (10 OR 30%), Method: PREINCUBATION): inactive; negative
mutagenic call (Test System: AMES SALMONELLA TYPHIMURIUM, Strain/Indicator: TA100, Metabolic Activation: NONE, Method: FLUCTUATION TEST): inactive; negative
mutagenic call [5]: inactive; negative
mutagenic call [6]: inactive; negative
mutagenic call [7]: inactive; negative
mutagenic call (Test System: AMES SALMONELLA TYPHIMURIUM, Strain/Indicator: TA100, Metabolic Activation: RAT, LIVER, S-9, AROCLOR 1254 (30%), Method: PREINCUBATION): inactive; negative
mutagenic call [8]: inactive; negative
mutagenic call (Test System: AMES SALMONELLA TYPHIMURIUM, Strain/Indicator: TA1535, Metabolic Activation: HAMSTER, LIVER, S-9, AROCLOR 1254 (10 OR 30%), Method: PREINCUBATION): inactive; negative
mutagenic call [9]: inactive; negative
mutagenic call [10]: inactive; negative
mutagenic call (Test System: AMES SALMONELLA TYPHIMURIUM, Strain/Indicator: TA1535, Metabolic Activation: RAT, LIVER, S-9, AROCLOR 1254 (30%), Method: PREINCUBATION): inactive; negative
mutagenic call (Test System: E. COLI, Strain/Indicator: WP2 UVRA, Metabolic Activation: HAMSTER, LIVER, S-9, AROCLOR 1254, Method: STANDARD PLATE): inactive; negative
mutagenic call (Test System: E. COLI, Strain/Indicator: WP2 UVRA, Metabolic Activation: HAMSTER, LIVER, S-9, Method: STANDARD PLATE): inactive; negative
mutagenic call (Test System: E. COLI, Strain/Indicator: WP2 UVRA, Metabolic Activation: MOUSE, LIVER, S-9, AROCLOR 1254, Method: STANDARD PLATE): inactive; negative
mutagenic call (Test System: E. COLI, Strain/Indicator: WP2 UVRA, Metabolic Activation: MOUSE, LIVER, S-9, Method: STANDARD PLATE): inactive; negative
mutagenic call (Test System: E. COLI, Strain/Indicator: WP2 UVRA, Metabolic Activation: NONE, Method: STANDARD PLATE): inactive; negative
mutagenic call (Test System: E. COLI, Strain/Indicator: WP2 UVRA, Metabolic Activation: RAT, LIVER, S-9, AROCLOR 1254, Method: STANDARD PLATE): inactive; negative
mutagenic call (Test System: E. COLI, Strain/Indicator: WP2 UVRA, Metabolic Activation: RAT, LIVER, S-9, Method: STANDARD PLATE): inactive; negative
mutagenic call (Test System: MOUSE LYMPHOMA, Strain/Indicator: L5178Y (TK+/TK-), Metabolic Activation: RAT, LIVER, S-9, AROCLOR 1254, Method: SUSPENSION/PLATE): inactive; negative
mutagenic call (Test System: MOUSE LYMPHOMA, Strain/Indicator: L5178Y (TK+/TK-), Metabolic Activation: RAT, LIVER, S-9, Method: SUSPENSION/PLATE): inactive; negative

OCC(O)CN1CCN(c2ccccc2)CC1 (configuration not stated)
mutagenic call (Test System: CHINESE HAMSTER V-79, Strain/Indicator: V-79/6-THIOGUANINE, Metabolic Activation: NONE): inactive; negative
mutagenic call (Test System: CHINESE HAMSTER V-79, Strain/Indicator: V-79/6-THIOGUANINE, Metabolic Activation: S-9): inactive; negative

CCNc1cc(O)ccc1C
mutagenic call (Test System: AMES SALMONELLA TYPHIMURIUM, Strain/Indicator: TA97, Metabolic Activation: HAMSTER, LIVER, S-9, AROCLOR 1254 (10%), Method: PREINCUBATION): inactive; negative
mutagenic call [1]: inactive; negative
mutagenic call [2]: inactive; negative
mutagenic call (Test System: AMES SALMONELLA TYPHIMURIUM, Strain/Indicator: TA98, Metabolic Activation: HAMSTER, LIVER, S-9, AROCLOR 1254 (10%), Method: PREINCUBATION): active; positive
mutagenic call [3]: inactive; negative
mutagenic call [4]: active; positive
mutagenic call (Test System: AMES SALMONELLA TYPHIMURIUM, Strain/Indicator: TA100, Metabolic Activation: HAMSTER, LIVER, S-9, AROCLOR 1254 (10%), Method: PREINCUBATION): active; positive
mutagenic call [5]: inactive; negative
mutagenic call [7]: inactive; negative
mutagenic call (Test System: AMES SALMONELLA TYPHIMURIUM, Strain/Indicator: TA1535, Metabolic Activation: HAMSTER, LIVER, S-9, AROCLOR 1254 (10%), Method: PREINCUBATION): inactive; negative
mutagenic call [9]: inactive; negative
mutagenic call [10]: inactive; negative

CO[C@@H]1[C@H](O)C[C@@H](O[C@@H]2C[C@H](Oc3cc4cc5c(c(O)c4c(O)c3C)C(=O)[C@@H](O[C@H]3C[C@@H](O[C@H]4C[C@@H](O[C@H]6C[C@](C)(O)[C@@H](OC(C)=O)[C@H](C)O6)[C@H](O)[C@@H](C)O4)[C@H](O)[C@@H](C)O3)[C@H]([C@H](OC)C(=O)[C@@H](O)[C@@H](C)O)C5)O[C@H](C)[C@@H]2OC(C)=O)O[C@@H]1C
mutagenic call (Test System: AMES SALMONELLA TYPHIMURIUM, Strain/Indicator: TA98, Metabolic Activation: NONE, Method: STANDARD PLATE): inactive; negative
mutagenic call [6]: inactive; negative
mutagenic call (Test System: CHINESE HAMSTER OVARY, Strain/Indicator: CHO (HGPRT)/6-THIOGUANINE, Metabolic Activation: NONE, Method: PREINCUBATION): active; positive
mutagenic call (Test System: E. COLI, Strain/Indicator: WP2 (HCR), Metabolic Activation: NONE, Method: STANDARD PLATE): inactive; negative

CCCCOc1cc(Cl)ccc1C(=O)NOC(C)=O
mutagenic call [6]: active; positive
mutagenic call (Test System: AMES SALMONELLA TYPHIMURIUM, Strain/Indicator: TA100, Metabolic Activation: RAT, S-9, AROCLOR, Method: STANDARD PLATE): active; positive

OCc1cc2ccc3cccc4ccc(c1)c2c34
mutagenic call (Test System: AMES SALMONELLA TYPHIMURIUM, Strain/Indicator: TA98, Metabolic Activation: HUMAN, LIVER, CYTOSOL, PAPS, Method: PREINCUBATION): active; positive

C[Si](C)(C)CN=[N+]=[N-]
mutagenic call [5]: inactive; negative
mutagenic call (Test System: AMES SALMONELLA TYPHIMURIUM, Strain/Indicator: TA100, Metabolic Activation: RAT, LIVER, S-9, PCB, Method: PREINCUBATION): active; positive

COc1ccc2oc([N+](=O)[O-])cc2c1N(CCCl)CCCl
mutagenic call (Test System: AMES SALMONELLA TYPHIMURIUM, Strain/Indicator: TA100(NR), Metabolic Activation: NONE, Method: STANDARD PLATE): active; positive
mutagenic call (Test System: AMES SALMONELLA TYPHIMURIUM, Strain/Indicator: TA100(NR), Metabolic Activation: RAT, LIVER, S-9, AROCLOR 1254, Method: STANDARD PLATE): active; positive
mutagenic call [6]: active; positive
mutagenic call [8]: active; positive
